In data set [1] the test system is CYP3A. Conditions: pretreatment with 500-mg of clarithromycin twice a day for 7 days; cited from earlier work.
Data set [2] has as its system CYP3A. The note with it: male, human, in vivo. As for the experimental part:
The subject was not receiving any medication. […] Urine samples were obtained at a timed period (0-2, 2-4, 4-6, 6-8, 8-10, and 10-12) and the volume of the urine samples was noted. The recommended frequency of blood sampling is at least one time during a 2-hour urine collection. Urinary concentrations of cortisol and 6β-hydroxycortisol and plasma concentrations of cortisol were determined by HPLC and GC-MS, respectively. “The endogenous metabolic clearance (CLm(6β)-endo)” was calculated by Equation 4.
c) The fractional metabolic clearance for the 6β-hydroxylation of endogenous cortisol (CLm(6β)) is expressed as the amount of urinary excreted 6β-hydroxycortisol (X(6β)) divided by the area under the concentration-time curve of cortisol (AUC(F)); that is, CLm(6β)=X(6β)/AUC(F).

The structures appear in SMILES notation.

`CC[C@H]1OC(=O)[C@H](C)[C@@H](O[C@H]2C[C@@](C)(OC)[C@@H](O)[C@H](C)O2)[C@H](C)[C@@H](O[C@@H]2O[C@H](C)C[C@H](N(C)C)[C@H]2O)[C@](C)(OC)C[C@@H](C)C(=O)[C@H](C)[C@@H](O)[C@]1(C)O` [clarithromycin]: in the data set with CYP3A [1], the midazolam sleep time entry was “doubling” and the “reduction in the systemic clearance of midazolam” value is on record as 64%. Further, in the data set on CYP3A [2], the “variation of CLm(6β)-endo values during treatment” value was determined as 1.2 fold.

(Values after US6905839B2, “In vivo phenotyping for human cytochrome P450 3A activity” (priority 2002, dated 2005).)
